# From patent US9079834B2, “HIV protease inhibitors” (Merck Canada Inc., priority 2010, dated 2015)
# pIC50: −log10 of the molar value.
# How the values were obtained:
# wild-type HIV-1 protease = wild-type HIV-1 protease (Human immunodeficiency virus type 1 group M subtype B (isolate HXB2) (HIV-1), UniProt P04585); assay: Assay for inhibition of microbial expressed HIV protease; assay type: biochemical; conditions: wild-type HIV-1 protease enzyme
# Experimental: The inhibition of WT HIV-1 protease was studied using the reaction of the protease (expressed in Escherichia coli) with a peptide substrate as described in WO 2009/042094. The test compound was first preincubated with the enzyme in assay buffer (50 mM sodium acetate, pH 5.5, 100 mM NaCl, and 0.1% BSA) for 30 minutes at room temperature. Substrate was then added to 400 micromolar in a total volume of 80 microliters containing 10 picomolar HIV-1 protease and the reaction was incubated for 1 hour at 30° C. The reaction was quenched with the addition of 120 microliters of 10% phosphoric acid. The product formation was determined after separation of product and substrate on a ZORBAX® Eclipse XDB-C18 (Agilent Technologies, Palo Alto, Calif.) column connected to an Agilent 1100 high performance liquid chromatography system with fluorescence detection (excitation 270 nanometer and emission 330 nanometer). Alternatively, the inhibitor was preincubated with enzyme and substrate as described above, but in a total volume of 20 microliters containing 20 picomolar HIV-1 protease and the reaction was incubated for 1 hour at 30° C. The reaction was quenched with the addition of 30 microliters of 1 micromolar indinavir (indinavir was also used as an internal standard), and the product formation was determined after separation of product and substrate on a ZORBAX® Eclipse XDB-C18 column connected to an API 4000 mass spectrometer (Applied Biosystems, Carlsbad, Calif.) with multiple reaction monitoring (transitions were 644.5/428.9 and 615.4/422.2 (M1/M3) for product and indinavir respectively). The extent of inhibition of the reaction was determined from the peak area of the products. HPLC of the products, independently synthesized, provided quantitation standards and confirmation of the product composition.
# [1] = system: HIV-1 replication in T-lymphoid cells; assay: Assay for inhibition of HIV replication (spread assay); assay type: cell-based; conditions: 10% FBS
# Experimental: Assays for the inhibition of acute HIV infection of T-lymphoid cells were conducted in accordance with Vacca, J. P. et al., Proc. Natl. Acad. Sci. USA 91: 4096-4100 (1994).
# [2] = Human immunodeficiency virus 1, T-lymphoid
smiles,measurement,setting,value
"COC(=O)N[C@H](C(=O)NCC(F)CC[C@@H](CO)N(CCC(C)C)S(=O)(=O)c1ccc(N)cc1)C(c1ccccc1)c1ccccc1 (stereo partly drawn) [Example 1, N-[(5S)-5-{[(4-aminophenyl)sulfonyl](3-methylbutyl)amino}-2-fluoro-6-hydroxyhexyl]-Nα-(methoxycarbonyl)-β-phenyl-L-phenylalaninamide]",pIC50,wild-type HIV-1 protease,10.52
same,IC95,[1]; [2],10.7 nM
"COC(=O)N[C@H](C(=O)NCC(F)CC[C@@H](CO)N(CCC(C)C)S(=O)(=O)c1ccc(N)cc1)C(c1ccccc1)c1ccccc1 (single isomer, unassigned) [Example 1-1, N-[(2R or S,5S)-5-{[(4-aminophenyl)sulfonyl](3-methylbutyl)amino}-2-fluoro-6-hydroxyhexyl]-Nα-(methoxycarbonyl)-β-phenyl-L-phenylalaninamide]",pIC50,wild-type HIV-1 protease,9.62
same,IC95,[1],42.8 nM
"COC(=O)N[C@H](C(=O)NCC(F)CC[C@@H](CO)N(CCC(C)C)S(=O)(=O)c1ccc(N)cc1)C(c1ccccc1)c1ccccc1 (single isomer, unassigned) [Example 1-2, N-[(2R or S,5S)-5-{[(4-aminophenyl)sulfonyl](3-methylbutyl)amino}-2-fluoro-6-hydroxyhexyl]-Nα-(methoxycarbonyl)-β-phenyl-L-phenylalaninamide]",pIC50,wild-type HIV-1 protease,11.00
same,IC95,[1],19.5 nM
"COC(=O)N[C@H](C(=O)NCC(F)(F)CC[C@@H](C(N)=O)N(CC1CC(F)(F)C1)S(=O)(=O)c1ccc2ncsc2c1)C(c1ccccc1)c1ccccc1 [Example 7, N^6-[N-(methoxycarbonyl)-β-phenyl-L-phenylalanyl]-N^2-(1,3-benzothiazol-6-ylsulfonyl)-N^2-[(3,3-difluorocyclobutyl)methyl]-5,5-difluoro-L-lysinamide]",pIC50,wild-type HIV-1 protease,9.37
same,IC95,[1]; [2],200 nM
"COC(=O)N[C@H](C(=O)NCC(F)(F)CC[C@@H](CO)N(CC1CC(F)(F)C1)S(=O)(=O)c1ccc2ncsc2c1)C(c1ccccc1)c1ccccc1 [Example 4, N-[(5S)-5-{(1,3-benzothiazol-6-ylsulfonyl)[(3,3-difluorocyclobutyl)methyl]amino}-2,2-difluoro-6-hydroxyhexyl]-Nα-(methoxycarbonyl)-β-phenyl-L-phenylalaninamide]",pIC50,wild-type HIV-1 protease,9.23
same,IC95,[1]; [2],181 nM
"COC(=O)N[C@H](C(=O)NCCC(F)C[C@@H](CO)N(C(C)C)S(=O)(=O)c1ccc(N)cc1)C(c1ccccc1)c1ccccc1 (stereo partly drawn) [Example 10, N-[(5S)-5-{[(4-aminophenyl)sulfonyl](propan-2-yl)amino}-3-fluoro-6-hydroxyhexyl]-Nα-(methoxycarbonyl)-β-phenyl-L-phenylalaninamide]",pIC50,wild-type HIV-1 protease,8.41
same,IC95,[1]; [2],246 nM
"COC(=O)N[C@H](C(=O)NCCC(F)(F)C[C@@H](CO)N(CC1CC(F)(F)C1)S(=O)(=O)c1ccc2ncsc2c1)C(c1ccccc1)c1ccccc1 [Example 9, N-[(5S)-5-{(1,3-benzothiazol-6-ylsulfonyl)[(3,3-difluorocyclobutyl)methyl]amino}-3,3-difluoro-6-hydroxyhexyl]-Nα-(methoxycarbonyl)-β-phenyl-L-phenylalaninamide]",pIC50,wild-type HIV-1 protease,8.25
same,IC95,[1]; [2],105 nM
"COC(=O)N[C@H](C(=O)NCCC(F)(F)C[C@@H](CO)N(C(C)C)S(=O)(=O)c1ccc(N)cc1)C(c1ccccc1)c1ccccc1 [Example 8, N-[(5S)-5-{[(4-aminophenyl)sulfonyl](propan-2-yl)amino}-3,3-difluoro-6-hydroxyhexyl]-Nα-(methoxycarbonyl)-β-phenyl-L-phenylalaninamide]",pIC50,wild-type HIV-1 protease,8.22
same,IC95,[1]; [2],299 nM
"COC(=O)N[C@H](C(=O)NCC(F)(F)CC[C@@H](CO)N(Cc1cn[nH]c1)S(=O)(=O)c1ccc2ncsc2c1)C(c1ccccc1)c1ccccc1 [Example 5, N-{(5S)-5-[(1,3-benzothiazol-6-ylsulfonyl)(1H-pyrazol-4-ylmethyl)amino]-2,2-difluoro-6-hydroxyhexyl}-Nα-(methoxycarbonyl)-β-phenyl-L-phenylalaninamide]",pIC50,wild-type HIV-1 protease,9.41
same,IC95,[1]; [2],907 nM
"COC(=O)N[C@H](C(=O)NCC(F)(F)CC[C@@H](CO)N(C1CCC(F)(F)CC1)S(=O)(=O)c1ccc2ncsc2c1)C(c1ccccc1)c1ccccc1 [Example 6, N-{(5S)-5-[(1,3-benzothiazol-6-ylsulfonyl)(4,4-difluorocyclohexyl)amino]-2,2-difluoro-6-hydroxyhexyl)-Nα-(methoxycarbonyl)-β-phenyl-L-phenylalaninamide]",pIC50,wild-type HIV-1 protease,8.56
same,IC95,[1]; [2],356 nM
CCCCCN([C@H](CO)CCC(F)(F)CNC(=O)[C@@H](NC(=O)OC)C(c1ccccc1)c1ccccc1)S(=O)(=O)c1ccc(CO)cc1 [Example 2],pIC50,wild-type HIV-1 protease,10.72
same,IC95,[1]; [2],16.3 nM
